Results on one compound are retold here after US20260191849A1, “PHARMACEUTICAL COMPOSITION FOR TREATMENT OF CANCER” (WIGEN BIOMEDICINE TECHNOLOGY (SHANGHAI) CO., LTD., priority 2022, published 2026).

The test concerns HCT116 cells. The test can be described thus: Combined use of compound 257 with PLK1 inhibitor (CYC140, TAK-960) on HCT116 cell viability, 168 h (Biological Example 10). In kind it is cell-based. As to the method:
HCT116 cells were seeded on a 384-well plate at 3000 cells/well. After overnight adherence culture, DMSO or compound 257 serially diluted in a 1:5 ratio from 400 nM and a PLK1 inhibitor with a specified concentration were added. The cell viability was assessed 168 h after dosing by measuring the intracellular ATP content. The inhibition percentages of viable cells by the compounds were calculated by comparing with the DMSO group, and the IC50 values were also calculated.

By IC50 is commonly meant the concentration needed to halve the response being measured.

As to `COc1ccc(NC(=O)c2ccc(NS(=O)(=O)CCO)cc2N2CCC3(CC2)CC3)nc1N1CCC(F)(F)CC1` [Compound 257], the “synergistic effect on HCT116 cell viability, combined use with the PLK1 inhibitor” value (CYC140 or TAK-960, in words) is given as “no significant synergistic effect”. For the same compound, the IC50 is more than 400 nM (HCT116 cells, CYC140 (Plogosertib) 1.6 nM); more than 400 nM (HCT116 cells, CYC140 (Plogosertib) 8 nM); more than 400 nM (HCT116 cells, TAK-960 0 nM); more than 400 nM (HCT116 cells, TAK-960 8 nM); more than 400 nM (HCT116 cells, TAK-960 40 nM); more than 400 nM (Homo sapiens, HCT-116, HCT116 cells, CYC140 (Plogosertib) 0 nM). The “anti-proliferative activity against HCT116 cells, monotherapy” value (in words) is on record as “did not exhibit anti-proliferative activity”.
